Tests used:
[1] = test system: AI90 (ΔgroEL::kan^R) [pBADEL] E. coli strain; experiment: Plating ability of AI90 on GroEL depletion at 37° C.; format: cell-based
Procedure: AI90 (ΔgroEL::kan^R) [pBAD-EL] cells were transformed with the pJC vector series. Transformants were selected at 37° C. on LB supplemented with 50 μg.ml^−1 of kanamycin, 120 μg.mL^−1 of ampicillin, 25 μg.mL^−1 of chloramphenicol and 0.2% L(+)arabinose. Depletion of GroEL protein was analysed at 37° C. by plating the same quantity of AI90 [PBAD-EL+pJC vectors] cells on LB plates containing 1% D(+)glucose or various amount of arabinose.
Each experiment was performed in triplicate. Plasmids carrying no groE genes or encoding the GroE proteins were used as negative or positive controls, respectively.

bacteriophage λ = experiment: Growth of bacteriophage λ in transformed groEL strains; format: cell-based, bacteriophage λ (b2cI) in E. coli
Description: The E. Coli strains used in this study were: C41(DE3), a mutant of BL21(DE3) capable of expressing toxic genes (Miroux, B. & Walker, J. E. (1996) J. Mol. Biol. 260, 289-298); SV2 (B178groEL44), SV3 (B178groEL59) and SV6 (B178groEL673): isogenic strains carrying temperature-sensitive alleles of groEL; SV1(=B178) (Georgopoulos, C., Hendrix, R. W., Casjens, S. R. & Kaiser, A. D. (1973) J. Mol. Biol. 76, 45-60), A190 (ΔgroEL::kan^R) [pBAD-EL] (Ivic, A., Olden, D., Wallington, E. J. & Lund, P. A. (1997) Gene 194, 1-8), and TG1 (Gibson, T. J. (1984) Ph.D. thesis, University of Cambridge, U.K). Bacteriophage λb2cI (Zeilstra-Ryalls, J., Fayet, O., Baird, L. & Georgopoulos, C. (1993) J. Bacteriol. 175, 1134-1143) was used according to standard methods (Arber, W., Enquist, L., Hohn, B., Murray, N. E. & Murray, K. (1983) in Lambda II., ed. R. W. Hendrix, J. W. r., F. W. Stahl and R. A. Weisberg (Cold Spring Harbor Laboratory, Cold Spring Harbor, N.Y.), pp. 433-466); plaque formation was assayed at 30° C. T4D0, a derivative of bacteriophage T4 (Zeilstra-Ryalls, J., Fayet, O., Baird, L. & Georgopoulos, C. (1993) J. Bacteriol. 175, 1134-1143), was used according to standard methods (Karam, J. D. (1994) Molecular biology of bacteriophage T4. (American Society for Microbiology, Washington, D.C.)); plaque formation was assayed at 37° C.

[2] = target: T1, heat- and dithiothreitol-denatured mtMDH (Sus scrofa, UniProt P00346); experiment: In vitro refolding of denatured mtMDH; format: biochemical, pig; conditions: 25° C., chaperone alone, FIG. 7b
T1 construct: Boehringer-Mannheim); purchased Boehringer-Mannheim; host or cells: pig heart
T1 sequence (P00346 25-338): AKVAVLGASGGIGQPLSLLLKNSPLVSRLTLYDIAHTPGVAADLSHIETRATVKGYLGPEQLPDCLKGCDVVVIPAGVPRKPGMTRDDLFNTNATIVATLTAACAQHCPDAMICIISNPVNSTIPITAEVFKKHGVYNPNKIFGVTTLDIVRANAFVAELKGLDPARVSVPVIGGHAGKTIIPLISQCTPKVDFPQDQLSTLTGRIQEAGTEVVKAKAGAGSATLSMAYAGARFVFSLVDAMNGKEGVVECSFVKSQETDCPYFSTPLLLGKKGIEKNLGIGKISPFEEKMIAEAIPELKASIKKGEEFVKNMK
Procedure: In vitro Refolding Experiments.
Refolding assays of pig heart mitochondrial malate dehydrogenase (mtMDH; Boehringer-Mannheim) and aggregation protection were carried out essentially as described (Peres Ben-Zvi, A. P., Chatellier, J., Fersht, A. R. & Goloubinoff, P. (1998) Proc. Natl. Acad. Sci. U.S.A. 95, 15275-15280). The concentrations of MC7 used were between 8-16 μM (reporter to protomer).

[3] = test system: mutant Huntingdon exon 1-expressing PC12 and SH-SY5Y cells; experiment: Inclusion formation and cell death, mutant Huntingdon exon 1; format: cell-based; conditions: overexpression
Description: These phenomena have been studied by transiently transfecting part of Huntingdon exon 1 in COS-7, PC12, and SH-SY5Y cells. Inclusion formation was not seen with constructs expressing 23 glutamines but was repeat length and time dependent for mutant constructs with 43-74 repeats. HSP70, HSP40, the 20S proteasome and ubiquitin colocalized with inclusions. […] Thus, inclusion formation may be enhanced in polyglutamine diseases, if the pathological process results in proteasome inhibition or a heat-shock response. […] To our knowledge, this is the first report of an HSP increasing aggregation of an abnormally folded protein in mammalian cells and expands the current understanding of the roles of HDJ-2yHSDJ in protein folding (See Wyttenbach, A. et al. (2000) Proc. Natl. Acad. Sci. USA 97, 2899-2903).
We have tested MC72 in the same system.

E. coli SV6 groEL673 = experiment: In vivo complementation of ts groEL673 at 43° C.; format: cell-based; conditions: plasmids pJC, relative to growth at 30° C.
Procedure: In vivo Complementation Experiments.
Complementation experiments were performed by transforming electro-competent SV2 or SV6 cells with the pJC series of expression vectors and plating an aliquot of the transformation reactions directly at 43° C. The percentage of viable cells relative to the growth at 30° C. was determined. A representative number of clones which grew at 43° C. were incubated in absence of any selective markers at permissive temperature. After prolonged growth the loss of the pJC plasmids and the ts phenotype were verified. Each experiment was performed in duplicate. Plasmids carrying no groE genes or encoding the GroE proteins were used as negative or positive controls, respectively.

GroEL(1-548): key molecular chaperone in Escherichia coli, 14 subunits of 57.5 kD in two seven membered rings
Plating ability, 0.00 % L(+)arabinose ([1]; 0.00% arabinose): +++ (growth identical to that in presence of 0.2% L(+)arabinose (100%), in terms of both number and size)
Plating ability, 0.01 % L(+)arabinose ([1]; 0.01% arabinose): +++ (growth identical to that in presence of 0.2% L(+)arabinose (100%), in terms of both number and size)
Plating ability, 0.10 % L(+)arabinose ([1]; 0.10% arabinose): +++ (growth identical to that in presence of 0.2% L(+)arabinose (100%), in terms of both number and size)
Plating ability, 0.15 % L(+)arabinose ([1]; 0.15% arabinose): +++ (growth identical to that in presence of 0.2% L(+)arabinose (100%), in terms of both number and size)
Growth of bacteriophage λ, SV1 (groEL^+) (bacteriophage λ; 30° C., SV1): − (no visible plaques (<10^−4))
Growth of bacteriophage λ, SV2 groEL44 (bacteriophage λ; 30° C., SV2): + (10-fold fewer plaques, or plaque size reduced relative to wild-type groEL^+ strain, or both)
Growth of bacteriophage λ, SV3 GroEL59 (bacteriophage λ; 30° C., SV3): ++ (5-fold fewer plaques relative to wild-type groEL^+ strain, or both)
Growth of bacteriophage λ, SV6 groEL673 (bacteriophage λ; 30° C., SV6): +/− (10^2-fold fewer plaques and plaque size reduced relative to wild-type groEL^+ strain)
Complementation of groEL mutant strains for bacteriophage λ growth (bacteriophage λ; 30° C., groEL mutant strains): weak complementation
Effect of over-expression on λ growth / plaque counts (bacteriophage λ; SV1 (groE^+)): suffices to inhibit λ growth
rate of refolding denatured mtMDH [2]: 0.04 nM/min
cell death [3]: no effect
inclusion formation [3]: no effect
Relative colony forming ability, SV6 groEL673 (E. coli SV6 groEL673): 1
